Structures are written as SMILES. Residue numbers refer to the chain shown, from its start. Square brackets hold non-standard residues; d marks the D form. Peptide text beside a SMILES is read from it. pS = N[C@@H](COP(=O)(O)O)C(=O)O

From article PMC4409382, “Structural Analysis of the 14-3-3ζ/Chibby Interaction Involved in Wnt/β-Catenin Signaling” (PLoS ONE, 2015) come the findings set out here.

Holding throughout (format): binding
The target in one assay is T1, 14-3-3ζ (Homo sapiens, UniProt P63104).
T1 construct: Both full-length 14-3-3ζ and 14-3-3ζΔC12 were expressed as N-terminally His-tagged protein; His tag (TEV-cleavable) (N, cleaved yes); made in house; host or cells: Escherichia coli BL21 (DE3) pLysS
T1 sequence (P63104 1-245): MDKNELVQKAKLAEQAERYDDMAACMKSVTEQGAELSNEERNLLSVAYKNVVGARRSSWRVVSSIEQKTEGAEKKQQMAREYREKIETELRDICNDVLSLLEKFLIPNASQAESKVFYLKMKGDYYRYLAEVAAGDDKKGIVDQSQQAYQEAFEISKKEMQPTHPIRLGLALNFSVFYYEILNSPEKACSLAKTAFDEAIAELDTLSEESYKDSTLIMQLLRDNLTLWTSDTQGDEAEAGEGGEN
The assay can be described thus: ITC of Cby peptides titrated into 14-3-3ζ. The settings on record: for Kd: 25°C (298.15 K); for n (binding stoichiometry of monomeric 14-3-3 and Cby peptide): 25°C; for T∆S / ∆G / ∆H / TΔS / ΔG / ΔH: 298.15 K; for T∆S / ∆G / ∆H: duplicate set (S1 Table); for TΔS / ΔG / ΔH: pH 6.8, Table 1 set of duplicate experiments. The source says: (§1) The human14-3-3ζ ORF purchased from GeneCopoeia was transferred into Gateway pDEST17 vector (Invitrogen). The 14-3-3ζΔC12, where the 12 C-terminal residues were deleted, was then generated from the full-length construct using QuikChange II Site-Directed Mutagenesis Kit (Strategene). Both full-length 14-3-3ζ and 14-3-3ζΔC12 were expressed as N-terminally His-tagged protein in Escherichia coli (E. coli) BL21 (DE3) pLysS in M9 medium. For unlabeled protein, protein expression was induced at an O.D.600 of 0.9 by adding 0.75 mM IPTG at 18°C for 24 h. The ^15N, ^13C, ^2H labeled 14-3-3ζΔC12 was produced by growing E. coli in deuterated M9 medium. Cells adapted to 70% D2O were used to inoculate a 1 L culture of M9 prepared in 100% D2O. Cells were grown at 37°C and overexpression was induced at an O.D.600 of 0.6 with 0.75 mM IPTG. After a 60-h induction at 18°C, the cells were harvested. All 14-3-3ζ constructs used in this study were purified from the crude lysate by affinity chromatography using Ni Sepharose Fast Flow beads (Amersham Biosciences). The tag was then cleaved by overnight incubation with His-tagged tobacco etch virus (TEV) protease at 25°C. The cleaved 14-3-3ζ, which retains an N-terminal glycine, was purified by passing the mixture through Ni Sepharose Fast Flow beads. The final yields for the 14-3-3ζ proteins were ~50 mg per L of M9 media (including deuterated media).
(§2) The Cby peptides used in this study were purchased from GenScript USA Inc. and the TUFTS University Core Facility. From GenScript USA Inc.: Cby 13-mer (NH2-^12KTPPRKSASLSNL^24-COOH), Cby S20D 13-mer (NH2-^12KTPPRKSADLSNL^24-COOH), Cby S20E 13-mer (NH2-^12KTPPRKSAELSNL^24-COOH), pCby 13-mer (NH2-^12KTPPRKSApSLSNL^24-COOH) and pCby 18-mer ((NH2-^12KTPPRKSApSLSNLHSLDR^29-COOH). From TUFTS: pCby 7-mer (Ac-^16RKSApSLS^22-NH2), pCby 11-mer (NH2-^12KTPPRKSApSLS^22-NH2), pCby S22P 7-mer (Ac-^16RKSApSLP^22-NH2), pCby S22P 13-mer (NH2-^12KTPPRKSApSLPNL^24-COOH) and pCby S22P 18-mer ([…]). Peptides were dissolved and dialyzed in 50 mM sodium phosphate, 100 mM NaCl at pH 6.8 for ITC and NMR experiments.
(§3) ITC experiments were performed on a VP-ITC instrument (MicroCal) at 25°C. The protein and peptide samples were dialyzed into a buffer containing 50 mM sodium phosphate, 100 mM NaCl, 1 mM DTT at pH 6.8 and degassed before the experiments. In a typical experiment, 5 μL aliquots of ~1–2 mM peptide were titrated stepwise into the 1.4 mL sample cell containing ~100–200 μM 14-3-3ζ. The association constant (Ka), molar binding stoichiometry (n) and the binding enthalpy (ΔH), entropy (ΔS) and Gibbs free energy (ΔG) were determined by fitting the binding isotherm to a one-site model with MicroCal Origin7 software. All ITC experiments were performed in duplicate. A duplicate set of thermodynamic derived binding parameters are found in S1 Table. Peptide and protein concentrations were determined from amino acid analysis (Amino Acid Analysis Facility, SickKids, Toronto, ON).

For another assay, the target named is T2, 14-3-3ζΔC12 (Homo sapiens, UniProt P63104).
T2 construct: The 14-3-3ζΔC12, where the 12 C-terminal residues were deleted, was then generated from the full-length construct; His tag (TEV-cleavable) (N, cleaved yes); made in house; host or cells: Escherichia coli BL21 (DE3) pLysS
T2 sequence (P63104 1-233 limits assumed): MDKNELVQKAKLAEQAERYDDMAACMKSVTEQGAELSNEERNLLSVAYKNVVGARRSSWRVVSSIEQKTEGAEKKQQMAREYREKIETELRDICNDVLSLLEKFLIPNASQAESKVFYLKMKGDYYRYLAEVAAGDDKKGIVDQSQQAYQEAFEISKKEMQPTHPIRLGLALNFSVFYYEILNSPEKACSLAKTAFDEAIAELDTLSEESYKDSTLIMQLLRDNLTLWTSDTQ
Briefly: ITC of Cby peptides titrated into 14-3-3ζΔC12. To be noted: 14-3-3ζΔC12 in ITC cell; for n (binding stoichiometry of monomeric 14-3-3 and Cby peptide): 25°C.
From the text: as §1, §2, §3

In another assay the target is T3, 14-3-3ζ K49A (Homo sapiens, UniProt P63104, K49A).
T3 construct: His tag (TEV-cleavable) (N, cleaved yes); made in house
T3 sequence (P63104 1-245 K49A): T1 sequence (P63104 1-245) with K49A
The assay can be described thus: ITC of Cby peptides titrated into 14-3-3ζ K49A. The settings on record: for n (binding stoichiometry of monomeric 14-3-3 and Cby peptide): 25°C, pH 6.8.
From the text: In numerous crystal structures of 14-3-3 proteins in complex with phosphorylated S/T peptides, the conserved K49 (numbering refers to the ζ isoform) side-chain is observed forming a hydrogen bond with the phosphate group on pS/pT (illustrated in S3 Fig with an elucidated 14-3-3ζ/Raf1 structure). With Cby’s S22 side-chain juxtaposed between 14-3-3ζ residues K49 and R56, the K49 side-chain is sterically hindered from contacting pS20. As such, we speculated that the increases in binding affinity to 14-3-3ζ observed for the S22P mutant peptides might be the result of the favorable contacts between K49 and pS20 facilitated by the proline-induced conformational changes. To test this, a K49A mutation was introduced into 14-3-3ζ and ITC titrations were performed with 18-mer WT and S22P Cby peptides.
as §2, §3

The mark [1] stands for this setting: 50 mM sodium phosphate, 100 mM NaCl, 1 mM DTT, pH 6.8, one-site model, Table 1 set of duplicate experiments.
The mark [2] stands for this setting: pH 6.8, duplicate set (S1 Table).
Setting [3] is: 298.15 K, Table 1 set of duplicate experiments.
Where [4] appears, read: 298.15 K, duplicate set (S1 Table).
Where [5] appears, read: 14-3-3ζ K49A in ITC cell, 298.15 K, Table 1 set of duplicate experiments.
[6] abbreviates: 14-3-3ζ K49A in ITC cell, 298.15 K, duplicate set (S1 Table).

In general, Kd refers to the free concentration of one partner at which half of the binding sites on the other are occupied at equilibrium, for simple one-to-one binding. Higher therefore signals weaker binding. Consider `CC(C)C[C@H](NC(=O)[C@H](CC(N)=O)NC(=O)[C@H](CO)NC(=O)[C@H](CC(C)C)NC(=O)[C@H](COP(=O)(O)O)NC(=O)[C@H](C)NC(=O)[C@H](CO)NC(=O)[C@H](CCCCN)NC(=O)[C@H](CCCNC(=N)N)NC(=O)[C@@H]1CCCN1C(=O)[C@@H]1CCCN1C(=O)[C@@H](NC(=O)[C@@H](N)CCCCN)[C@@H](C)O)C(=O)O` [Cby 13-mer] (H-KTPPRKSA[pS]LSNL-OH), for which the equilibrium dissociation constant (Kd) at 14-3-3ζ (50 mM sodium phosphate, 100 mM NaCl, 1 mM DTT, pH 6.8, duplicate set (S1 Table)) was found to be 12.8 ± 0.5 µM; on 14-3-3ζ (setting [1]) it was 14.5 ± 0.6 µM; on 14-3-3ζΔC12 (298.15 K, pH 6.8, duplicate set (S1 Table)) it was 14.5 ± 0.6 µM. The “n (binding stoichiometry of monomeric 14-3-3 and Cby peptide)” value on 14-3-3ζ (setting [1]) came out at 1.00; at 14-3-3ζ (setting [2]), 1.07; at 14-3-3ζΔC12 (pH 6.8, Table 1 set of duplicate experiments), 0.99; at 14-3-3ζΔC12 (setting [2]), 1.06. In addition, the “T∆S” value is 4.07 kcal/mol on 14-3-3ζ and 4.52 kcal/mol at 14-3-3ζΔC12 (setting [4]). In addition, the “∆G” value is -6.67 ± 0.02 kcal/mol on 14-3-3ζ and -6.60 ± 0.02 kcal/mol on 14-3-3ζΔC12 (setting [4]). The “∆H” value was -2.60 ± 0.03 kcal/mol on 14-3-3ζ and -2.08 ± 0.03 kcal/mol on 14-3-3ζΔC12 (setting [4]). Besides, the TΔS at 14-3-3ζ is 3.97 kcal/mol; on 14-3-3ζΔC12 (setting [3]) it was 4.50 kcal/mol. For the same molecule, the ΔG on 14-3-3ζ is reported as -6.60 ± 0.02 kcal/mol; on 14-3-3ζΔC12 (setting [3]), -6.58 ± 0.04 kcal/mol. Besides, the ΔH on 14-3-3ζ was -2.63 ± 0.02 kcal/mol; on 14-3-3ζΔC12 (setting [3]), -2.08 ± 0.03 kcal/mol.
Regarding `CC(C)C[C@H](NC(=O)[C@H](CO)NC(=O)[C@H](Cc1c[nH]cn1)NC(=O)[C@H](CC(C)C)NC(=O)[C@H](CC(N)=O)NC(=O)[C@@H]1CCCN1C(=O)[C@H](CC(C)C)NC(=O)[C@H](COP(=O)(O)O)NC(=O)[C@H](C)NC(=O)[C@H](CO)NC(=O)[C@H](CCCCN)NC(=O)[C@H](CCCNC(=N)N)NC(=O)[C@@H]1CCCN1C(=O)[C@@H]1CCCN1C(=O)[C@@H](NC(=O)[C@@H](N)CCCCN)[C@@H](C)O)C(=O)N[C@@H](CC(=O)O)C(=O)N[C@@H](CCCNC(=N)N)C(=O)O` [Cby 18-mer S22P] (H-KTPPRKSA[pS]LPNLHSLDR-OH), at 14-3-3ζ, the “fold tighter binding than the S22P 7-mer” value is given as ~ 9 fold, the “T∆S” value is given as 0.79 kcal/mol, the “∆G” value is -8.76 ± 0.02 kcal/mol and the “∆H” value is on record as -7.97 ± 0.01 kcal/mol. On 14-3-3ζ, the TΔS was 0.76 kcal/mol, the ΔG is on record as -8.79 ± 0.02 kcal/mol and the ΔH is listed as -8.03 ± 0.02 kcal/mol. For the same molecule, on 14-3-3ζ (setting [1]), the “n (binding stoichiometry of monomeric 14-3-3 and Cby peptide)” value is listed as 1.05. Besides, the “n (binding stoichiometry of monomeric 14-3-3 and Cby peptide)” value at 14-3-3ζ (setting [2]) was 1.08. In addition, the “n (binding stoichiometry of monomeric 14-3-3 and Cby peptide)” value on 14-3-3ζ K49A (14-3-3ζ K49A in ITC cell, Table 1 set of duplicate experiments) came to 1.07. For the same molecule, the “n (binding stoichiometry of monomeric 14-3-3 and Cby peptide)” value at 14-3-3ζ K49A (14-3-3ζ K49A in ITC cell, duplicate set (S1 Table)) worked out at 0.97. For the same molecule, at 14-3-3ζ K49A (setting [5]), the TΔS was determined as 0.67 kcal/mol, the ΔG was -7.80 ± 0.06 kcal/mol and the ΔH is on record as -7.13 ± 0.03 kcal/mol. Further, at 14-3-3ζ K49A (setting [6]), the “T∆S” value was determined as 1.17 kcal/mol, the “∆G” value was -7.84 ± 0.03 kcal/mol and the “∆H” value is given as -6.67 ± 0.04 kcal/mol. In addition, the “ΔΔG of binding, 14-3-3ζ K49A compared to WT 14-3-3ζ” value on 14-3-3ζ K49A (ITC, 18-mer peptides) was ~ 1.0 kcal/mol. Also, the “effect of 14-3-3ζ K49A mutation on binding affinity (fold reduction)” value on 14-3-3ζ K49A (ITC, versus WT 14-3-3ζ) is ~ 5 fold.
